The structures appear in SMILES notation.

Test [1] in a line: Inhibition of HIV reverse transcriptase. Also noted: species or system Human immunodeficiency virus.
Test [2] in a line: Inhibition of HIV integrase. Also noted: species or system Human immunodeficiency virus.
The test system of test [3] is Human immunodeficiency virus. Briefly: Antiviral activity against HIV by cell based assay. The test is classed as functional, organism-based. Conditions: Human immunodeficiency virus 1.

As for `CCn1cc(C(=O)O)c(=O)c2cc(COCn3c(Cc4ccccc4)c(C(C)C)c(=O)[nH]c3=O)ccc21`, the 50% inhibitory concentration (IC50) (in general, the point on the concentration scale where inhibition reaches its midpoint) was found to be 1.1 µM in test [1] and 51 µM in test [2]. For the same compound, in test [3], the EC50 (commonly the concentration giving half of the maximal effect) was determined as 1.5 µM.

`CC(C)c1c(Cc2ccccc2)n(COCc2ccc3[nH]cc(C(=O)O)c(=O)c3c2)c(=O)[nH]c1=O`: the results for the IC50 in test [1] and in test [2] were 0.19 µM and 35 µM, respectively. Further, the midpoint of the response in test [3], the EC50, lay at 0.22 µM.

For the compound `CC(C)c1c(Cc2ccccc2)n(COCc2ccc3c(c2)c(=O)c(C(=O)O)cn3C)c(=O)[nH]c1=O`, the values for the IC50 in test [1] and in test [2] were 2.6 µM and 41 µM, respectively. This compound displayed an EC50 in test [3] of 0.21 µM.

As for `CC(C)c1c(Cc2ccccc2)n(COCc2ccc3c(c2)c(=O)c(C(=O)O)cn3CCO)c(=O)[nH]c1=O`, the values for the half-inhibitory concentration (IC50) in test [1] and in test [2] were 3.7 µM and 19 µM, respectively. In addition, the concentration for a half-maximal effect (EC50) in test [3] was found to be 2.2 µM.

Values taken from ChEMBL document CHEMBL1142366, “Synthesis of pyrimidine and quinolone conjugates as a scaffold for dual inhibitors of HIV reverse transcriptase and integrase” (Bioorg Med Chem Lett, 2008).
